For 18 compounds, IC50 results are on record in US20110190280A1, “Thiazole And Oxazole Kinase Inhibitors” (priority 2007, published 2011).

Where a name gives a salt, the structure may show the parent alone. Where only a bound is given, the exact number is not on record here.

For one test, the target named is B-Raf (Homo sapiens, UniProt P15056). Briefly: B-Raf Accelerated MEK ATPase assay (BRAMA). The test is classed as biochemical. The note with it: BRAMA enzyme assay; class by pIC50; read-out: B-Raf Activity. Here is the method: Compounds of the present invention were tested for B-Raf […] inhibitory activity in a B-Raf Accelerated MEK ATPase assay (BRAMA). The BRAMA assay is a high sensitivity assay which measures an intrinsic MEK-mediated ATP hydrolysis uncoupled from downstream ERK phosphorylation by coupling the formation of ADP to NADH oxidation through the enzymes pyruvate kinase and lactate dehydrogenase. When ADP production is initiated by addition of catalytic amounts of an activated RAF enzyme and non-phosphorylated MEK, one observes robust ADP production concomitant with RAF-mediated phosphorylation of MEK. Specific details of the assay are disclosed in: C. Rominger, M. Schaber, E. May. Assay for B-Raf Activity Based on Intrinsic MEK ATPase Activity.
Chain of B-Raf (P15056 whole entry): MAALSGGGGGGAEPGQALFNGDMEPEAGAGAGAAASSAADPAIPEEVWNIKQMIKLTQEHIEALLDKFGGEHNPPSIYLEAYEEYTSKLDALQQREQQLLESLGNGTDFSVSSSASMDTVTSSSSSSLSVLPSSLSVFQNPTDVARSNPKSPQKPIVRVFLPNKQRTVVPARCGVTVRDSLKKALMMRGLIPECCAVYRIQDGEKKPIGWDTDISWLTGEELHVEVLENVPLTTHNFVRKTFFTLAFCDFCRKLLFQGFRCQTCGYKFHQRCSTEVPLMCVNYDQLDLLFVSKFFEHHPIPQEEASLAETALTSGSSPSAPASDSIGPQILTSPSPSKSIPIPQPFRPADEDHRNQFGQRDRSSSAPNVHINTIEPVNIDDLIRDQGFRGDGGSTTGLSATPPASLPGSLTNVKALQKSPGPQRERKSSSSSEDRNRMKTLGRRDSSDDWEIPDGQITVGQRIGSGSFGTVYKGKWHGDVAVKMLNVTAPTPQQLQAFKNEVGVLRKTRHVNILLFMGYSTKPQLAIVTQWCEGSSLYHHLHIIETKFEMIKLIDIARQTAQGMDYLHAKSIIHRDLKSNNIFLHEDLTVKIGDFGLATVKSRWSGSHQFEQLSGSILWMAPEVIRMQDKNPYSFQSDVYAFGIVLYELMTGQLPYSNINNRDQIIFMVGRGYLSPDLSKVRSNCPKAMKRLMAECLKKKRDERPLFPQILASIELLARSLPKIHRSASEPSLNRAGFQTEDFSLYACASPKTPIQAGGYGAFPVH

A further test has as its system A375P tumor cells. Briefly: Cell growth inhibition assay (CellTiter-Glo), A375P.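 Note: total ATP luminescence used as proxy for cell number, serial threefold compound dilutions at 0.2% DMSO, growth inhibition expressed versus DMSO vehicle-treated wells.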 As to conditions: Homo sapiens, 72 h, read-out: Activity in A375P Tumor Cells. (ATP-based viability assays read luminescence as a measure of living cells.)
For another test, the system named is HT-29 tumor cells. Briefly: Cell growth inhibition assay (CellTiter-Glo), HT-29.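 Note: ATP content read by luminescence as proxy for cell number, growth inhibition versus DMSO vehicle wells, 0.2% DMSO final, nine serial threefold compound dilutions.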 The note with it: Homo sapiens, HT-29, 72 h, read-out: Activity in HT-29 Tumor Cells.
The next test relates to Colo205 tumor cells. Briefly: Cell growth inhibition assay (CellTiter-Glo), Colo205.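 Note: growth measured via total ATP luminescence (CellTiter-Glo) as a proxy for cell number, inhibition expressed against DMSO-treated control wells, 3-day exposure at 0.2% final DMSO.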 The note with it: Homo sapiens, COLO 205, 72 h, read-out: Activity in Colo205 Tumor Cells.
Another test has as its system SK-MEL-3 tumor cells. Briefly: Cell growth inhibition assay (CellTiter-Glo), SK-MEL-3.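 Note: human melanoma cells grown with compound for 3 days in 0.2% DMSO, total ATP read by luminescence as proxy for cell number, growth inhibition versus DMSO-treated wells.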 The note with it: Homo sapiens, SK-MEL3, 72 h, read-out: Activity in SK-MEL-3 Tumor Cells.
The next test concerns SK-MEL-28 tumor cells. Briefly: Cell growth inhibition assay (CellTiter-Glo), SK-MEL-28.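 Note: luminescent total ATP as a proxy for cell number, threefold serial dilutions at 0.2% DMSO, percent growth inhibition versus DMSO vehicle control wells.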 The note with it: Homo sapiens, SK-MEL-28, 72 h, read-out: Activity in SK-MEL-28 Tumor Cells.

Procedure for Colo205 tumor cells: (§1) Cell Growth Inhibition Assays Human colon tumor cells (Colo205) were cultured in RPMI (Mediatech 50-020-PB) containing 10% FBS and 1% penicillin-streptomycin. […] Human melanoma cancer cells (A375-F11S) were cultured in RPMI (Mediatech 50-020-PB) containing 10% FBS, 1% sodium pyruvate, and 1% penicillin-streptomycin. Human colon cancer cells (HT-29) were cultured in high glucose DMEM (Mediatech 50-013-PB) containing 10% FBS and 1% penicillin-streptomycin. Human melanoma cancer cells (SK-MEL-3) were cultured in McCoy's 5A (50-025-PB) containing 15% FBS, and 1% penicillin-streptomycin. All cell lines were maintained at 37° C. in a humidified 5% CO2, 95% air incubator.
(§2) The next day, compounds were diluted as follows: For 96-well assays, 13.5 μl of compound in DMSO were diluted using nine (9) serial 1:3 dilutions of 4.5 μl in 9 μl of DMSO. Medium (270 μl/well of RPMI with 10% FBS and 1% penicillin-streptomycin) was added to the plates. Aliquots (7 μl) were added to cells in the final assay giving a final DMSO concentration of 0.2%. For 384-well assays, 15 μl of compound in DMSO were diluted using nine (9) serial 1:3 dilutions of 5 μl in 10 μl of DMSO, followed by a further dilution of 5 μl of compound with 95 μl of medium, of which 2 μl are added to cells in the final assay giving a final DMSO concentration of 0.2%. Cells were incubated at 37° C., 5% CO2 for 3 days.
(§3) Total ATP was measured (as a surrogate estimate of cell number) using CellTiter-Glo® (Promega G7571) reagent. Briefly, plates were removed from the incubator and allowed to equilibrate to room temperature for 30 minutes. CellTiter-Glo® (25 μl or 55 μl for 384-well or 96-well assays, respectively) reagent was added to each well and plates were shaken on an orbital plate shaker for 2 minutes. Plates were incubated without shaking for a further 30 minutes and read on an LJL Analyst GT reader in luminometer mode with an integration time of 0.5 seconds per well. Percent inhibition of cell growth was calculated relative to DMSO vehicle-treated control wells.
Procedure for HT-29 tumor cells: as §1, §2, §3

Regarding `CCNc1nc(-c2cc(OC)cc(OC)c2)c(-c2ccnc(Nc3cc(F)c(OC4CCN(CCS(C)(=O)=O)CC4)c(F)c3)n2)o1` [Example 90], the IC50 at B-Raf was less than 100 nM; in the test with A375P tumor cells, 500 to 5000 nM; with HT-29 tumor cells, less than 500 nM; with Colo205 tumor cells, less than 500 nM; in the test on SK-MEL-3 tumor cells, less than 500 nM; with SK-MEL-28 tumor cells, less than 500 nM.
For the compound `CCc1nc(-c2cc(C)cc(CO)c2)c(-c2ccnc(Nc3ccc(N4CCN(S(C)(=O)=O)CC4)nc3)n2)s1` [Example 66, (3-{2-Ethyl-5-[2-({6-[4-(methylsulfonyl)piperazin-1-yl]pyridin-3-yl}amino)pyrimidin-4-yl]-1,3-thiazol-4-yl}-5-methylphenyl)methanol], the IC50 was less than 100 nM on B-Raf; less than 500 nM in the test with A375P tumor cells; less than 500 nM in the test on HT-29 tumor cells; less than 500 nM with Colo205 tumor cells; less than 500 nM in the test on SK-MEL-3 tumor cells; 500 to 5000 nM in the test on SK-MEL-28 tumor cells.
In the case of `CCNc1nc(-c2cc(OC)cc(OC)c2)c(-c2ccnc(Nc3ccc(N4CCN(C)CC4)c(Cl)c3)n2)s1` [Example 11, 4-[4-[3,5-Bis(methyloxy)phenyl]-2-(ethylamino)-1,3-thiazol-5-yl]-N-[3-chloro-4-(4-methyl-1-piperazinyl)phenyl]-2-pyrimidinamine], the IC50 on B-Raf is less than 100 nM; with A375P tumor cells, less than 500 nM; in the test with HT-29 tumor cells, less than 500 nM; with Colo205 tumor cells, less than 500 nM; in the test with SK-MEL-3 tumor cells it was less than 500 nM; in the test with SK-MEL-28 tumor cells, less than 500 nM.
Take `CCNc1nc(-c2cc(OC)ccn2)c(-c2ccnc(Nc3ccc(OCCN4CCCC4)c(Cl)c3)n2)s1` [Example 57, N-(3-Chloro-4-{[2-(1-pyrrolidinyl)ethyl]oxy}phenyl)-4-{2-(ethylamino)-4-[4-(methyloxy)-2-pyridinyl]-1,3-thiazol-5-yl}-2-pyrimidinamine]: the IC50 is less than 100 nM at B-Raf; less than 500 nM in the test with A375P tumor cells; less than 500 nM with HT-29 tumor cells; 500 to 5000 nM in the test with Colo205 tumor cells; less than 500 nM in the test with SK-MEL-3 tumor cells; 500 to 5000 nM with SK-MEL-28 tumor cells.
As for `COc1cc(OC)cc(-c2nc(Nc3ccccc3)sc2-c2ccnc(Nc3ccc(OC4CCN(CCS(C)(=O)=O)CC4)c(F)c3)n2)c1` [Example 23, 4-[4-[3,5-Bis(methyloxy)phenyl]-2-(phenylamino)-1,3-thiazol-5-yl]-N-[3-fluoro-4-({1-[2-(methylsulfonyl)ethyl]-4-piperidinyl}oxy)phenyl]-2-pyrimidinamine hydrochloride], the IC50 was less than 100 nM on B-Raf; 500 to 5000 nM in the test on A375P tumor cells; less than 500 nM with HT-29 tumor cells; 500 to 5000 nM in the test with Colo205 tumor cells; less than 500 nM in the test on SK-MEL-3 tumor cells; 500 to 5000 nM in the test with SK-MEL-28 tumor cells.
Take `CCNc1nc(-c2cc(OC)cc(OC)c2)c(-c2ccnc(Nc3ccc(OC4CCN(CCF)CC4)c(OC)c3)n2)o1` [Example 96]: the IC50 on B-Raf was less than 100 nM; in the test with A375P tumor cells it was 500 to 5000 nM; in the test on HT-29 tumor cells it was 500 to 5000 nM; in the test with Colo205 tumor cells, 500 to 5000 nM; with SK-MEL-3 tumor cells it was 500 to 5000 nM; in the test on SK-MEL-28 tumor cells it was 500 to 5000 nM.
With `CCNc1nc(-c2cc(Cl)cc(OC)c2)c(-c2ccnc(Nc3ccc(N4CCN(CCF)CC4)c(F)c3)n2)o1` [Example 104], the IC50 on B-Raf is less than 100 nM; in the test with A375P tumor cells, 500 to 5000 nM; with HT-29 tumor cells it was less than 500 nM; in the test on Colo205 tumor cells, less than 500 nM; in the test on SK-MEL-3 tumor cells, 500 to 5000 nM; with SK-MEL-28 tumor cells, 500 to 5000 nM.
`CCNc1nc(-c2ccc3c(c2)OCO3)c(-c2ccnc(Nc3ccc(OC4CCN(CCS(C)(=O)=O)CC4)c(F)c3)n2)s1` [Example 52, 4-[4-(1,3-Benzodioxol-5-yl)-2-(ethylamino)-1,3-thiazol-5-yl]-N-[3-fluoro-4-({1-[2-(methylsulfonyl)ethyl]-4-piperidinyl}oxy)phenyl]-2-pyrimidinamine]: the IC50 on B-Raf is less than 100 nM; with A375P tumor cells, less than 500 nM; with HT-29 tumor cells it was less than 500 nM; in the test with Colo205 tumor cells, less than 500 nM; with SK-MEL-3 tumor cells, less than 500 nM; with SK-MEL-28 tumor cells, less than 500 nM.
For `CCNc1nc(-c2cc(C)cc(OC)c2)c(-c2ccnc(Nc3ccc(N4CCN(C)CC4)c(OC)c3)n2)s1` [Example 33, 4-{2-(Ethylamino)-4-[3-methyl-5-(methyloxy)phenyl]-1,3-thiazol-5-yl}-N-[3-(methyloxy)-4-(4-methyl-1-piperazinyl)phenyl]-2-pyrimidinamine], the IC50 is less than 100 nM at B-Raf; less than 500 nM with A375P tumor cells; less than 500 nM with HT-29 tumor cells; less than 500 nM with Colo205 tumor cells; less than 500 nM with SK-MEL-3 tumor cells; less than 500 nM in the test on SK-MEL-28 tumor cells.
For `CCNc1nc(-c2cc(OC)cc(OC)c2)c(-c2ccnc(Nc3ccc(OC4CCN(CCOC)CC4)c(F)c3)n2)o1` [Example 89], the IC50 on B-Raf was less than 100 nM; in the test with A375P tumor cells, 500 to 5000 nM; with HT-29 tumor cells it was 500 to 5000 nM; in the test on Colo205 tumor cells it was 500 to 5000 nM; in the test with SK-MEL-3 tumor cells it was less than 500 nM; in the test with SK-MEL-28 tumor cells, 500 to 5000 nM.
In the case of `CCNc1nc(-c2cc(OC)cc(OC)c2)c(-c2ccnc(Nc3ccc(N4CCN(CCO)CC4)nc3)n2)o1` [Example 108], the IC50 was less than 100 nM at B-Raf; 500 to 5000 nM with A375P tumor cells; 500 to 5000 nM with HT-29 tumor cells; less than 500 nM in the test with Colo205 tumor cells; 500 to 5000 nM in the test on SK-MEL-3 tumor cells; 500 to 5000 nM in the test on SK-MEL-28 tumor cells.
In the case of `COc1cc(OC)cc(-c2nc(NC3CC3)sc2-c2ccnc(Nc3ccc(OCCN(C)C)c(Cl)c3)n2)c1` [Example 105], the IC50 on B-Raf is less than 100 nM; in the test on A375P tumor cells, less than 500 nM; in the test with HT-29 tumor cells, less than 500 nM; in the test with Colo205 tumor cells, less than 500 nM; in the test on SK-MEL-3 tumor cells, less than 500 nM; in the test with SK-MEL-28 tumor cells, less than 500 nM.
Take `CCNc1nc(-c2cc(OC)cc(OC)c2)c(-c2ccnc(Nc3ccc(OC4CCN(CCS(C)(=O)=O)CC4)c(Cl)c3)n2)o1` [Example 92]: the IC50 is less than 100 nM on B-Raf; 500 to 5000 nM in the test on A375P tumor cells; 500 to 5000 nM in the test on HT-29 tumor cells; 500 to 5000 nM in the test with Colo205 tumor cells; 500 to 5000 nM with SK-MEL-3 tumor cells; 500 to 5000 nM with SK-MEL-28 tumor cells.
In the case of `CCNc1nc(-c2cc(OC)cc(OC)c2)c(-c2ccnc(Nc3ccc(OC4CCN(C(C)=O)CC4)c(F)c3)n2)s1` [Example 12, N-{4-[(1-Acetyl-4-piperidinyl)oxy]-3-fluorophenyl}-4-[4-[3,5-bis(methyloxy)phenyl]-2-(ethylamino)-1,3-thiazol-5-yl]-2-pyrimidinamine], the IC50 is less than 100 nM on B-Raf; less than 500 nM with A375P tumor cells; less than 500 nM in the test with HT-29 tumor cells; less than 500 nM in the test with Colo205 tumor cells; less than 500 nM in the test on SK-MEL-3 tumor cells; 500 to 5000 nM in the test with SK-MEL-28 tumor cells.
Regarding `CCNc1nc(-c2ccc(Cl)c(C)c2)c(-c2ccnc(Nc3ccc(OCCN4CCCC4)c(Cl)c3)n2)s1` [Example 54, 4-[4-(4-Chloro-3-methylphenyl)-2-(ethylamino)-1,3-thiazol-5-yl]-N-(3-chloro-4-{[2-(1-pyrrolidinyl)ethyl]oxy}phenyl)-2-pyrimidinamine], the IC50 on B-Raf was less than 100 nM; in the test on A375P tumor cells, 500 to 5000 nM; in the test with HT-29 tumor cells it was less than 500 nM; with Colo205 tumor cells, less than 500 nM; in the test with SK-MEL-3 tumor cells, less than 500 nM; in the test on SK-MEL-28 tumor cells it was 500 to 5000 nM.
On to `CCNc1nc(-c2cc(OC)cc(OC)c2)c(-c2ccnc(Nc3ccc(N4CCN(CCOC)CC4)c(C(=O)O)c3)n2)o1` [Example 119], for which the IC50 on B-Raf is less than 100 nM; in the test with A375P tumor cells, 500 to 5000 nM; in the test with HT-29 tumor cells it was 500 to 5000 nM; in the test on Colo205 tumor cells, 500 to 5000 nM; in the test with SK-MEL-3 tumor cells, 500 to 5000 nM; in the test with SK-MEL-28 tumor cells, 500 to 5000 nM.
For `COc1cccc(-c2nc(C(C)C)sc2-c2ccnc(Nc3ccc(OC4CCN(C(C)C)CC4)c(F)c3)n2)c1` [Example 59, N-(3-Fluoro-4-{[1-(1-methylethyl)-4-piperidinyl]oxy}phenyl)-4-{2-(1-methylethyl)-4-[3-(methyloxy)phenyl]-1,3-thiazol-5-yl}-2-pyrimidinamine], the IC50 was less than 100 nM at B-Raf; 500 to 5000 nM in the test with A375P tumor cells; less than 500 nM in the test on HT-29 tumor cells; less than 500 nM in the test with Colo205 tumor cells; less than 500 nM with SK-MEL-3 tumor cells; 500 to 5000 nM with SK-MEL-28 tumor cells.
As to `CCNc1nc(-c2cc(OC)cc(OC)c2)c(-c2ccnc(Nc3ccc(O[C@H]4CCN(CCS(C)(=O)=O)C4)nc3)n2)s1` [Example 3, 4-[4-[3,5-Bis(methyloxy)phenyl]-2-(ethylamino)-1,3-thiazol-5-yl]-N-[6-({(3S)-1-[2-(methylsulfonyl)ethyl]-3-pyrrolidinyl}oxy)-3-pyridinyl]-2-pyrimidinamine], the IC50 was less than 100 nM at B-Raf; less than 500 nM in the test on A375P tumor cells; less than 500 nM in the test with HT-29 tumor cells; less than 500 nM in the test on Colo205 tumor cells; less than 500 nM in the test with SK-MEL-3 tumor cells; less than 500 nM in the test with SK-MEL-28 tumor cells.
